In ChEMBL document CHEMBL5576098, “Synthesis and activity of benzimidazole N-Acylhydrazones against Trypanosoma cruzi, Leishmania amazonensis and Leishmania infantum” (Bioorg Med Chem Lett, 2024):
pIC50: −log10 of the molar value. Active and inactive are the calls of the source. The rule behind the calls is not given here.

Assays:
[1] = Selectivity index, ratio of CC50 for mouse L929 cells to IC50 for Trypanosoma cruzi Tulahuen expressing beta-galactosidase gene infected in mouse L929 cells; type: toxicity, cell-based; settings: read-out: Ratio CC50/IC50
[2] = Cytotoxicity against mouse RAW264.7 cells measured after 48 hrs; type: toxicity, cell-based
[3] = Selectivity index, ratio of LC50 for mouse peritoneal macrophage cells to IC50 for bloodstream trypomastigote form of Trypanosoma cruzi Y; type: toxicity; settings: peritoneal macrophages, read-out: Ratio LC50/IC50
Leishmania amazonensis [4] = test: Antiparasitic activity against Leishmania amazonensis amastigotes infected in mouse RAW264.7 cells measured after 48 hrs; type: functional, organism-based; settings: for pIC50: RAW264.7, 48 h
Leishmania infantum [5] = test: Antiparasitic activity against Leishmania infantum promastigotes infected in mouse RAW264.7 cells measured after 48 hrs; type: functional, organism-based; settings: for pIC50: RAW264.7, 48 h
Trypanosoma cruzi [6] = test: Antitrypanosomal activity against bloodstream trypomastigote form of Trypanosoma cruzi Y measured after 24 hrs; type: functional, organism-based
[7] = Cytotoxicity against mouse L929 cells assessed as inhibition of cell viability measured after 120 hrs; type: toxicity, cell-based
[8] = Selectivity index, ratio of CC50 for mouse RAW264.7 cells to IC50 for Leishmania infantum amastigotes infected in mouse RAW264.7 cells; type: toxicity, cell-based; settings: read-out: Ratio CC50/IC50
[9] = Cytotoxicity against non-infected mouse peritoneal macrophage cells measured after 24 hrs; type: toxicity, cell-based; settings: non-infected peritoneal macrophages, read-out: LC50
Trypanosoma cruzi [10] = test: Antitrypanosomal activity against tissue-culture derived trypomastigote form of Trypanosoma cruzi Y measured after 120 hrs; type: functional
Trypanosoma cruzi [11] = test: Antitrypanosomal activity against Trypanosoma cruzi Tulahuen expressing beta-galactosidase gene infected in mouse L929 cells measured after 120 hrs; type: functional, organism-based; settings: L929, 120 h
[12] = target: Cruzipain (Trypanosoma cruzi) (UniProt P25779); test: Inhibition of Trypanosoma cruzi cruzain at 100 uM relative to control
Cruzipain (Trypanosoma cruzi), sequence (P25779 123-467 limits assumed): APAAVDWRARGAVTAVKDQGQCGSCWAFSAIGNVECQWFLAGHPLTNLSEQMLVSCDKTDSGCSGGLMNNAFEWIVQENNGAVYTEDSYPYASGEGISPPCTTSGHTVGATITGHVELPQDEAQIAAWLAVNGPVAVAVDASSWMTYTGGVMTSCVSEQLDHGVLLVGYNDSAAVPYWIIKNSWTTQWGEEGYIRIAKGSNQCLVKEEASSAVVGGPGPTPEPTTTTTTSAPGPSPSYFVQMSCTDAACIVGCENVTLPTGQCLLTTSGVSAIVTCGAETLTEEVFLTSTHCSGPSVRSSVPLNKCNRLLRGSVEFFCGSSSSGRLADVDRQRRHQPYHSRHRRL

Leishmania infantum [13] = test: Antiparasitic activity against Leishmania infantum amastigotes infected in mouse RAW264.7 cells measured after 48 hrs; type: functional, organism-based; settings: for pIC50: RAW264.7, 48 h
Leishmania amazonensis [14] = test: Antiparasitic activity against Leishmania amazonensis promastigotes infected in mouse RAW264.7 cells measured after 48 hrs; type: functional, organism-based
Trypanosoma cruzi [15] = test: Potency index, ratio of benznidazole IC50 to test compound IC50 for antitrypanosomal activity against Trypanosoma cruzi Tulahuen expressing beta-galactosidase gene infected in mouse L929 cells measured after 120 hrs; type: functional
[16] = Selectivity index, ratio of CC50 for mouse RAW264.7 cells to IC50 for Leishmania infantum promastigotes infected in mouse RAW264.7 cells; type: toxicity, cell-based; settings: read-out: Ratio CC50/IC50
[17] = Selectivity index, ratio of CC50 for mouse RAW264.7 cells to IC50 for Leishmania amazonensis amastigotes infected in mouse RAW264.7 cells; type: toxicity, cell-based; settings: read-out: Ratio CC50/IC50

Compound	selectivity ratio [1]	CC50 at 48 h [2] [µM]	selectivity ratio [3]	Activity (Leishmania amazonensis [4])	Activity (Leishmania infantum [5])	pIC50 (Trypanosoma cruzi [6])	CC50 at 120 h [7] [µM]	selectivity ratio [8]	CC50 at 24 h [9] [µM]	LC50 (Trypanosoma cruzi [10]) [µM]	pIC50 (Trypanosoma cruzi [11])	inhibition [12] [%]	pIC50 (Leishmania infantum [13])	Activity (Leishmania amazonensis [14])	Activity (Leishmania infantum [13])	pIC50 (Leishmania amazonensis [4])	selectivity ratio [17]	other results
O=C(N/N=C/c1ccc(O)cc1)c1nc2ccccc2[nH]1	2.5	88.8	> 5.6	inactive	inactive	4.05	170	0.9	> 500	233	4.16	65	4.01	inactive	–	–	–	–
COc1cc(/C=N/NC(=O)c2nc3ccccc3[nH]2)cc([N+](=O)[O-])c1O	1.2	84.4	–	inactive	inactive	< 3.30	124	–	–	369	3.98	45	–	inactive	inactive	–	–	–
O=C(N/N=C/c1ccc([N+](=O)[O-])o1)c1nc2ccccc2[nH]1	7680	25.7	> 1.6	–	–	3.52	257	0.4	> 500	15	7.48	18	4.21	inactive	–	4.74	1.4	Ratio IC50 (Trypanosoma cruzi [15]): 46; selectivity ratio [16]: 0.9; pIC50 (Leishmania infantum [5]): 4.54
COc1ccc(/C=N/NC(=O)c2nc3ccccc3[nH]2)cc1	2.1	188	–	–	inactive	3.68	170	5.1	> 500	472	4.09	22	4.44	inactive	–	4.46	5.4	–
O=C(N/N=C/c1ccc2c(c1)OCO2)c1nc2ccccc2[nH]1	1.4	30.1	–	–	inactive	< 3.30	148	–	–	–	3.98	47	–	inactive	inactive	4.35	0.7	–
COc1ccc(/C=N/NC(=O)c2nc3ccccc3[nH]2)cc1O	6.2	88.9	1	–	–	3.91	153	1.7	120	203	4.61	58	4.28	inactive	–	3.87	0.7	selectivity ratio [16]: 0.5; pIC50 (Leishmania infantum [5]): 3.72
COc1cc(/C=N/NC(=O)c2nc3ccccc3[nH]2)ccc1O	1.1	89.9	–	inactive	inactive	< 3.30	72.2	–	–	394	4.18	38	–	inactive	inactive	–	–	–
COc1cc(/C=N/NC(=O)c2nc3ccccc3[nH]2)cc(OC)c1OC	5.7	42.3	–	–	inactive	< 3.30	203	–	–	343	4.45	6	< 3.55	–	–	3.83	0.3	pIC50 (Leishmania amazonensis [14]; RAW264.7, 48 h): < 3.55
O=C(Cn1ccnc1[N+](=O)[O-])NCc1ccccc1 [BENZNIDAZOLE]	1390	–	113	–	–	5.06	2110	–	> 1000	10.8	5.82	–	–	–	–	–	–	–
O=C(N/N=C/c1cccs1)c1nc2ccccc2[nH]1	1.9	131	–	–	inactive	< 3.30	170	2.7	–	416	4.04	24	4.31	inactive	–	4.21	2.1	–
COc1ccc(/C=N/NC(=O)c2nc3ccccc3[nH]2)cc1OC	1.7	53.6	> 3.1	inactive	inactive	3.80	293	–	> 500	–	3.76	35	–	inactive	inactive	–	–	–
